Laboratory results from patent US7998987B2, “Inhibitors of c-Met and uses thereof” (Vertex Pharmaceuticals Incorporated, priority 2005, dated 2011).
Values belong to the compound of their own block, whether it stands above or below them.

Target: c-Met (Homo sapiens, UniProt P08581)
Assay: Ki determination for the inhibition of c-Met kinase activity (standard coupled enzyme system)
Assay type: biochemical
Settings: coupled enzyme system, 200 μM ATP, 80 nM c-Met, 30° C.; read-out: c-Met Ki
How it was run: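 Continuous coupled-enzyme (PK/LDH, NADH depletion) assay with 80 nM c-Met, 200 μM ATP and 10 μM polyGluTyr in 100 mM HEPES pH 7.5, 10 mM MgCl2, 1.5% DMSO at 30 °C.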

c-Met, sequence (P08581 25-1390): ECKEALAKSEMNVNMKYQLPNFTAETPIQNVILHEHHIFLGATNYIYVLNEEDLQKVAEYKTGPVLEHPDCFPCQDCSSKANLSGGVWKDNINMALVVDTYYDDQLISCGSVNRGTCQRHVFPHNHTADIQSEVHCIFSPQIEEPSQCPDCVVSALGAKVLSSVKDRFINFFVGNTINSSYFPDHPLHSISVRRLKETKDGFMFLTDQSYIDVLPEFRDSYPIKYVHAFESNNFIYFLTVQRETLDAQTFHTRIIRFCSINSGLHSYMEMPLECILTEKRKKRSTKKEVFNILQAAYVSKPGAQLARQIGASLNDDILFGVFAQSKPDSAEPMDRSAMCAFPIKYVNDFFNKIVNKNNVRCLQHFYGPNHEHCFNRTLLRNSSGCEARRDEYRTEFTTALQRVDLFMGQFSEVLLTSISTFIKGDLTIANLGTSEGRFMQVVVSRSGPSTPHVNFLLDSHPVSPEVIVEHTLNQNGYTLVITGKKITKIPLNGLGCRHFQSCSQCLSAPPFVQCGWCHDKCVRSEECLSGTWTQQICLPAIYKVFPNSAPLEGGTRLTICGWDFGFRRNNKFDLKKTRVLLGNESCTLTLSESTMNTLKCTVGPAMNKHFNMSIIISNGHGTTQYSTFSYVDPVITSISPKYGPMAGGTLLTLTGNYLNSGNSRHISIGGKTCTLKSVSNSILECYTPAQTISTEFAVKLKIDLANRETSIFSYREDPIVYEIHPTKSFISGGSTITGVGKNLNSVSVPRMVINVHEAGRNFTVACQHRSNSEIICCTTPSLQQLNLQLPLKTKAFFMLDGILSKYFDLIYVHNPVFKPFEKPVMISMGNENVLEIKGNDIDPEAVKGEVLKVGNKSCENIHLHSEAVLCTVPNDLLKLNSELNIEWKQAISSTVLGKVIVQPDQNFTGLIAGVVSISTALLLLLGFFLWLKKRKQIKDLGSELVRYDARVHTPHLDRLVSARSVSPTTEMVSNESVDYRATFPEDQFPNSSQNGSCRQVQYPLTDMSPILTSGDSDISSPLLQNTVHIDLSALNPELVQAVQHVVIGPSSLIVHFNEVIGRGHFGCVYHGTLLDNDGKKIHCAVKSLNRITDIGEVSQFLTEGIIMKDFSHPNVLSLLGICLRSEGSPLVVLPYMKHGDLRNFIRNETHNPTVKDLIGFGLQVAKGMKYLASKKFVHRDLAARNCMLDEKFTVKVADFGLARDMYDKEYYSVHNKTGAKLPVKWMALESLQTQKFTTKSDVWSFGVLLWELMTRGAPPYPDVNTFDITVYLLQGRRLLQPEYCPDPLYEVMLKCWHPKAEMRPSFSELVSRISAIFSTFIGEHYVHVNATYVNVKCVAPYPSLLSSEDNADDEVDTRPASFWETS

SMILES: O=[N+]([O-])c1ccc(Cc2nnc3ccc(Nc4cccc(Cl)c4)nn23)cc1 [Compound 475]
Ki: > 2000 nM

SMILES: NC(=O)c1cc(Cc2nnc3ccc(Nc4cccc(Cl)c4)nn23)ccc1F [Compound 476]
Ki: > 2000 nM

SMILES: Clc1cccc(Nc2ccc3nnc(CNc4ccc5cc[nH]c5c4)n3n2)c1 [Compound 477]
Ki: > 2000 nM

SMILES: NC(=O)c1ncccc1OCc1nnc2ccc(Nc3cccc(Cl)c3)nn12 [Compound 478]
Ki: > 2000 nM

SMILES: CC(=O)c1cn(Cc2nnc3ccc(Nc4cccc(Cl)c4)nn23)c2ncccc12 [Compound 480]
Ki: > 2000 nM

SMILES: Oc1ccc(Cc2nnc3ccc(Nc4nncs4)nn23)cc1 [Compound 482]
Ki: > 2000 nM

SMILES: Clc1cccc(Nc2ccc3nnc(Cn4cnc5ccccc54)n3n2)c1 [Compound 485]
Ki: > 2000 nM

SMILES: Clc1cccc(Nc2ccc3nnc(Cn4nc(Cl)c5ccccc54)n3n2)c1 [Compound 486]
Ki: > 2000 nM

SMILES: Clc1cccc(Nc2ccc3nnc(Cn4ncc5ccccc54)n3n2)c1 [Compound 489]
Ki: > 2000 nM

SMILES: Clc1cccc(Nc2ccc3nnc(COc4c[nH]c5ccccc45)n3n2)c1 [Compound 491]
Ki: > 2000 nM

SMILES: COc1ccc(Cc2nnc3ccc(Nc4cccc(Cl)c4)nn23)cc1C(N)=O [Compound 496]
Ki: > 2000 nM

SMILES: Cc1nnc(Nc2ccc3nnc([C@@H](C)c4ccc(O)cc4)n3n2)s1 [Compound 500]
Ki: > 2000 nM

SMILES: Clc1cccc(Nc2ccc3nnc(COc4ccc5c(c4)OCO5)n3n2)c1 [Compound 503]
Ki: > 2000 nM

SMILES: C[C@@H](c1ccc(O)cc1)c1nnc2ccc(Sc3ncc[nH]3)nn12 [Compound 511]
Ki: > 2000 nM

SMILES: CCc1nnc(Nc2ccc3nnc([C@@H](C)c4ccc(O)cc4)n3n2)s1 [Compound 515]
Ki: 100 to 2000 nM

SMILES: Oc1c(Cc2nnc3ccc(Nc4cccc(Cl)c4)nn23)cnc2ncnn12 [Compound 516]
Ki: > 2000 nM

SMILES: Clc1cccc(Nc2ccc3nnc(Cn4cncn4)n3n2)c1 [Compound 517]
Ki: 100 to 2000 nM

SMILES: c1ccc(C2=Nn3c(Cc4ccc5c(c4)OCO5)nnc3SC2)cc1 [Compound 523]
Ki: 100 to 2000 nM

SMILES: Oc1ccc(Cc2nnc3n2N=C(c2c[nH]c4ncccc24)CS3)cc1 [Compound 524]
Ki: 100 to 2000 nM

SMILES: CS(=O)(=O)Nc1cccc(Cc2nnc3n2N=C(c2ccccc2)CS3)c1 [Compound 526]
Ki: > 2000 nM

SMILES: Fc1ccc(Cc2nnc3n2N=C(c2ccccc2)CS3)cc1 [Compound 527]
Ki: > 2000 nM

SMILES: CS(=O)(=O)c1ccc(Cc2nnc3n2N=C(c2ccccc2)CS3)cc1 [Compound 528]
Ki: > 2000 nM

SMILES: c1ccc(C2=Nn3c(Cc4ccncc4)nnc3SC2)cc1 [Compound 529]
Ki: > 2000 nM

SMILES: COc1ccc(Cc2nnc3n2N=C(c2ccccc2)CS3)cc1 [Compound 530]
Ki: 100 to 2000 nM

SMILES: COc1ccc(Cc2nnc3n2N=C(c2ccccc2)CS3)cc1F [Compound 531]
Ki: > 2000 nM

SMILES: CC(C)C[C@H](NC(=O)OCc1ccccc1)C1=Nn2c(Cc3ccc(O)cc3)nnc2SC1 [Compound 532]
Ki: > 2000 nM

SMILES: CCOC(=O)C1=Nn2c(Cc3ccc(O)cc3)nnc2SC1 [Compound 534]
Ki: 100 to 2000 nM

SMILES: O=C1COc2ccc(C3=Nn4c(Cc5ccc(O)cc5)nnc4SC3)cc2N1 [Compound 535]
Ki: 100 to 2000 nM

SMILES: CC1=Nn2c(Cc3ccc(O)cc3)nnc2SC1C (centres unmarked) [Compound 536]
Ki: > 2000 nM

SMILES: O=C(N[C@@H](Cc1ccccc1)C1=Nn2c(Cc3ccc(O)cc3)nnc2SC1)OCc1ccccc1 [Compound 537]
Ki: > 2000 nM

SMILES: Oc1ccc(Cc2nnc3n2N=C(c2ccncc2)CS3)cc1 [Compound 538]
Ki: 100 to 2000 nM

SMILES: O=C(O)Cc1ccc(C2=Nn3c(Cc4ccc(O)cc4)nnc3SC2)s1 [Compound 539]
Ki: 100 to 2000 nM

SMILES: CC1=Nn2c(Cc3ccc(O)cc3)nnc2SC1 [Compound 542]
Ki: 100 to 2000 nM

SMILES: c1csc(C2=Nn3c(Cc4ccncc4)nnc3SC2)c1 [Compound 545]
Ki: > 2000 nM

SMILES: Fc1ccc(Cc2nnc3n2N=C(c2cccs2)CS3)cc1 [Compound 546]
Ki: 100 to 2000 nM

SMILES: COc1ccc(Cc2nnc3n2N=C(c2cccs2)CS3)cc1 [Compound 547]
Ki: 100 to 2000 nM

Second part, the compound after the results:

Ki: 100 to 2000 nM
SMILES: COC(=O)c1ccc(NCc2nnc3ccc(Nc4cccc(Cl)c4)nn23)nc1 [Compound 479]

Ki: 100 to 2000 nM
SMILES: Oc1ccc(Cc2nnc3ccc(Nc4nc5ccc(Cl)cc5s4)nn23)cc1 [Compound 481]

Ki: < 100 nM
SMILES: C[C@@H](c1ccc(O)cc1)c1nnc2ccc(Nc3nc4ccc(Cl)cc4s3)nn12 [Compound 483]

Ki: 100 to 2000 nM
SMILES: C[C@@H](c1ccc(O)cc1)c1nnc2ccc(Nc3nncs3)nn12 [Compound 484]

Ki: 100 to 2000 nM
SMILES: Clc1cccc(Nc2ccc3nnc(CNc4ccc5cn[nH]c5c4)n3n2)c1 [Compound 487]

Ki: 100 to 2000 nM
SMILES: Clc1cccc(Nc2ccc3nnc(CNc4ccc5[nH]ncc5c4)n3n2)c1 [Compound 488]

Ki: 100 to 2000 nM
SMILES: NC(c1ccc(F)cc1)c1nnc2ccc(Nc3cccc(Cl)c3)nn12 (centres unmarked) [Compound 492]

Ki: < 100 nM
SMILES: CC(c1ccc(F)cc1)c1nnc2ccc(Nc3cccc(Cl)c3)nn12 (centres unmarked) [Compound 493]

Ki: 100 to 2000 nM
SMILES: NC(=O)c1ccc(Cc2nnc3ccc(Nc4cccc(Cl)c4)nn23)cc1 [Compound 494]

Ki: 100 to 2000 nM
SMILES: CCn1nccc1Nc1ccc2nnc([C@@H](C)c3ccc(O)cc3)n2n1 [Compound 497]

Ki: 100 to 2000 nM
SMILES: C[C@@H](c1ccc(O)cc1)c1nnc2ccc(Nc3ccncn3)nn12 [Compound 498]

Ki: 100 to 2000 nM
SMILES: C[C@@H](c1ccc(O)cc1)c1nnc2ccc(Nc3nc4ccccc4s3)nn12 [Compound 499]

Ki: 100 to 2000 nM
SMILES: C[C@@H](c1ccc(O)cc1)c1nnc2ccc(Cl)nn12 [Compound 501]

Ki: < 100 nM
SMILES: O=c1ccc(Cc2nnc3ccc(Nc4cccc(Cl)c4)nn23)c[nH]1 [Compound 502]

Ki: 100 to 2000 nM
SMILES: Clc1cccc(Nc2ccc3nnc(Cc4cc5c(cc4Cl)OCO5)n3n2)c1 [Compound 504]

Ki: 100 to 2000 nM
SMILES: C[C@@H](c1ccc(O)cc1)c1nnc2ccc(Nc3ccnn3C)nn12 [Compound 505]

Ki: < 100 nM
SMILES: C[C@@H](c1ccc(O)cc1)c1nnc2ccc(Nc3ccnc(Cl)c3)nn12 [Compound 506]

Ki: < 100 nM
SMILES: C[C@@H](c1ccc(O)cc1)c1nnc2ccc(Sc3nc4ccccc4[nH]3)nn12 [Compound 507]

Ki: 100 to 2000 nM
SMILES: C[C@@H](c1ccc(O)cc1)c1nnc2ccc(Sc3nc[nH]n3)nn12 [Compound 508]

Ki: < 100 nM
SMILES: C[C@@H](c1ccc(O)cc1)c1nnc2ccc(Nc3cc(Cl)cnc3Cl)nn12 [Compound 509]

Ki: 100 to 2000 nM
SMILES: C[C@@H](c1ccc(O)cc1)c1nnc2ccc(Nc3ccc(F)nc3)nn12 [Compound 510]

Ki: 100 to 2000 nM
SMILES: C[C@@H](c1ccc(O)cc1)c1nnc2ccc(Nc3ccc(Cl)nn3)nn12 [Compound 512]

Ki: 100 to 2000 nM
SMILES: CCOC(=O)c1sc(Nc2ccc3nnc([C@@H](C)c4ccc(O)cc4)n3n2)nc1C [Compound 513]

Ki: 100 to 2000 nM
SMILES: C[C@@H](c1ccc(O)cc1)c1nnc2ccc(Nc3ccc(Cl)nc3)nn12 [Compound 514]

Ki: < 100 nM
SMILES: Clc1cccc(Nc2ccc3nnc(CNc4cccc5ncccc45)n3n2)c1 [Compound 518]

Ki: < 100 nM
SMILES: Clc1cccc(Nc2ccc3nnc(CNc4n[nH]c5ncccc45)n3n2)c1 [Compound 519]

Ki: < 100 nM
SMILES: Oc1ccc(C2(c3nnc4ccc(Nc5ccnc(Cl)c5)nn34)CC2)cc1 [Compound 520]

Ki: < 100 nM
SMILES: C[C@@H](c1ccc(O)cc1)c1nnc2ccc(NC3CCCC(C(F)(F)F)C3)nn12 (some centres unmarked) [Compound 521]

Ki: < 100 nM
SMILES: Oc1ccc(Cc2nnc3n2N=C(c2ccccc2)CS3)cc1 [Compound 522]

Ki: < 100 nM
SMILES: CC(c1ccc(O)cc1)c1nnc2n1N=C(c1ccccc1)CS2 (centres unmarked) [Compound 525]

Ki: < 100 nM
SMILES: Oc1ccc(Cc2nnc3n2N=C(c2ccc4c(c2)OCCO4)CS3)cc1 [Compound 533]

Ki: < 100 nM
SMILES: Oc1ccc(Cc2nnc3n2N=C(c2ccc4c(c2)OCO4)CS3)cc1 [Compound 540]

Ki: < 100 nM
SMILES: Oc1ccc(Cc2nnc3n2N=C(c2ccsc2)CS3)cc1 [Compound 541]

Ki: < 100 nM
SMILES: Oc1ccc(Cc2nnc3n2N=C(c2cccs2)CS3)cc1 [Compound 543]

Ki: < 100 nM
SMILES: c1csc(C2=Nn3c(Cc4ccc5c(c4)OCO5)nnc3SC2)c1 [Compound 544]
